pIC50: −log10 of the molar value. “And” between values parts separate entries of the source, which are not always exact repeats. Equal entries are not always repeated.
Columns and labels:
Format in all cases: cell-based
SmoM2::GFP = target: T1, SmoM2::GFP (Homo sapiens, UniProt Q99835, W535L); test: Ciliary localization of SmoM2::GFP (3T3/SmoM2::GFP Overexpression/Ivs::tagRFPT)
T1 construct: expressed in transfected cells
From the text: (§1) NIH/3T3 cells were maintained in DMEM containing 10% (v/v) calf serum, penicillin, streptomycin, and L-glutamine. HEK293, L, cos 7, and suFU−/− mouse embryonic fibroblast cells were maintained in DMEM containing 10% (v/v) fetal bovine serum, penicillin, streptomycin, and L-glutamine. Smo::EGFP, SmoM2::GFP, and Ivs::tagRFPT were cloned into pBabe to generate retroviral particles for infection. Smo::EGFP/Ivs::tagRFPT and SmoM2::GFP/Ivs::tagRFPT stable cell lines were generated through viral infection of NIH/3T3^12. A ShhLightII Gli reporter cell line was obtained from the American Type Culture Collection (ATCC) and used in luciferase reporter assays to measure Hh pathway activity. The cell line contains a stably integrated Gli-responsive Firefly luciferase reporter and a constitutive Renilla luciferase expression construct^33. Subclones expressing Smo or SmoM2 in ShhLightII cells were used for chemical epistasis analyses.
(§2) Cells were cultured and treated in 384-well imaging plate precoated with poly-D-Lysine (Greiner Bio-one), fixed with 4% paraformaldehyde (Electron Microscopy Sciences), and stained with Hoechst (Invitrogen). Images were collected using Opera High Content Screening System (Perkin Elmer). Activityl)ase (IDBS Inc, Emeryvill, Calif.) and Pipeline Pilot (Accelrys, Inc. San Diego, Calif.) were used for high content screening data management and analysis. Acapella 2.0 software (Evotec Technologies/PerkinElmer) was used to perform multi-parametrical high content image quantification. All the images for comparison were scanned with identical microscopic settings and analyzed with the same input parameters.
(§3) Acapella 2.0 software (Evotec Technologies/PerkinElmer) was used to perform multi-parametric high content image quantification. Our image analysis script used Ivs::tagREPT to first determine the location of the PC and then Smo::EGFP to quantify the level of Smo present in the cilium.

Smo = test: Gli-luciferase reporter induced by Smo::GFP overexpression (Smo/LightII cells); settings: Mus musculus, Shh Light II; 3T3/Smo::GFP Overexpression/Shh-LightII; stimulus none; read-out: IC50, inhibition of expression of Gli-luciferase reporter induced by Smo::GFP overexpression
From the text: as §1, with “The cell line contains a stably integrated Gli-responsive Firefly luciferase reporter and a constitutive Renilla luciferase expression construct^33. Subclones expressing Smo or SmoM2 in ShhLightII cells were used for chemical epistasis analyses.” left out
Hh activity assays were performed using ShhLightll cells, Smo/Lightll cells, SmoM2/Lightll cells, and suFU−/− mouse embryonic fibroblasts. In the suFU−/− cells, Hh activity was measured after co-transfection with Gli driven firefly luciferase and TK-renilla luciferase reporters^41. Wnt activity was measured in 293 cells co-transfected with Top-flash and TK-renilla luciferase reporters^42. Cells were cultured and treated in 96 well assay plates (Corning) and incubated with Duo-Glo luciferase substrates (Promega) to measure firefly and renilla luciferase activity sequentially using a Top Count NX Microplate Scintillation and Luminescence Counter (Perkin Elmer). […]

Smo::EGFP = target: T2, Smo::EGFP (Homo sapiens, UniProt Q99835); test: SAG-induced Smo::GFP ciliary accumulation (3T3/Smo::GFP/Ivs::tagRFPT); settings: 3T3/Smo::GFP/Ivs::tagRFPT cells; 100 nM SAG; read-out: IC50, inhibition of SAG-induced Smo::GFP ciliary accumulation
T2 construct: expressed in transfected cells
Method: as §2, §3
The inventors used the spot-finding algorithm in the RFP channel to find Ivs-rich spots. Each non-overlapping spot was based on a maximum 8 pixel-radius (when using a 40× objective) around a central intensity peak of 5 pixels. A distance of at least 10 pixels was required between adjacent spot centers. […] The average, maximum and total RFP intensity of each spot were measured. […]

SmoM2 = test: Gli-luciferase reporter induced by SmoM2::GFP overexpression (SmoM2/LightII cells)
From the text: as §1
(§4) Hh activity assays were performed using ShhLightll cells, Smo/Lightll cells, SmoM2/Lightll cells, and suFU−/− mouse embryonic fibroblasts. In the suFU−/− cells, Hh activity was measured after co-transfection with Gli driven firefly luciferase and TK-renilla luciferase reporters^41. Wnt activity was measured in 293 cells co-transfected with Top-flash and TK-renilla luciferase reporters^42. Cells were cultured and treated in 96 well assay plates (Corning) and incubated with Duo-Glo luciferase substrates (Promega) to measure firefly and renilla luciferase activity sequentially using a Top Count NX Microplate Scintillation and Luminescence Counter (Perkin Elmer). The renilla luciferase signal was used to normalize the firefly reporter activity.
ShhLightII cells and SmoM2/LightII cells were cultured and treated in 96 well assay plates (Corning) and incubated with Duo-Glo luciferase substrates (Promega) to sequentially measure firefly and renilla luciferase activity. Smo, or GFP, expression plasmids were co-transfected into 3T3 cells together with a Gli-responsive firefly reporter and a TK-renilla luciferase reporter contruct to monitor effects of Smo overexpression. Co-transfection of the two reporter constructs was conducted in assays measuring Hh pathway activity in suFU−/− cells. Wnt activity was measured following co-transfection of a Top-flash and renilla luciferase reporter. In both Hh and Wnt activity assays, renilla luciferase reporter activity, or mass of protein, was used to normalize expression values. Luciferase signal was read by TopCount NX Microplate Scintillation and Luminescence Counter (Perkin Elmer). Quantitative PCR probes for Ptch1, Gli1, and β-actin were purchased from Applied Biosystems. Reactions and measurements were performed using on an Applied Biosystems 7900HT at Harvard FAS Center of System Biology. β-actin was used to normalize Ptch1 and Gil1 values.

Hh pathway activity = test: SAG-induced Gli-luciferase reporter expression (3T3/Shh-LightII); settings: Mus musculus, Shh Light II, 3T3/Shh-LightII cells; 100 nM SAG; read-out: IC50, inhibition of SAG-induced expression of Gli-luciferase reporter
Method: as §4
(§5) ShhLightII cells and SmoM2/LightII cells were cultured and treated in 96 well assay plates (Corning) and incubated with Duo-Glo luciferase substrates (Promega) to sequentially measure firefly and renilla luciferase activity. […] Wnt activity was measured following co-transfection of a Top-flash and renilla luciferase reporter. […] Luciferase signal was read by TopCount NX Microplate Scintillation and Luminescence Counter (Perkin Elmer). Quantitative PCR probes for Ptch1, Gli1, and β-actin were purchased from Applied Biosystems. […]

[1] = test system: Hh pathway activation induced by loss of suFU; test: Gli-luciferase assay in suFU−/− mouse embryonic fibroblasts; settings: suFU−/− cells
Method: as §4, §5

[2] = test system: Smo::EGFP/Ivs::tagRFPT cells; test: Cytotoxicity in vitro in the high content assay; settings: doses up to 200 μM
Method: Hoechst staining was used to determine the total number of nuclei per well.
Cells were cultured and treated in 384-well imaging plate precoated with poly-D-Lysine (Greiner Bio-one), fixed with 4% paraformaldehyde (Electron Microscopy Sciences), and stained with Hoechst (Invitrogen). Images were collected using Opera High Content Screening System (Perkin Elmer).

T1 sequence (Q99835 28-787 W535L): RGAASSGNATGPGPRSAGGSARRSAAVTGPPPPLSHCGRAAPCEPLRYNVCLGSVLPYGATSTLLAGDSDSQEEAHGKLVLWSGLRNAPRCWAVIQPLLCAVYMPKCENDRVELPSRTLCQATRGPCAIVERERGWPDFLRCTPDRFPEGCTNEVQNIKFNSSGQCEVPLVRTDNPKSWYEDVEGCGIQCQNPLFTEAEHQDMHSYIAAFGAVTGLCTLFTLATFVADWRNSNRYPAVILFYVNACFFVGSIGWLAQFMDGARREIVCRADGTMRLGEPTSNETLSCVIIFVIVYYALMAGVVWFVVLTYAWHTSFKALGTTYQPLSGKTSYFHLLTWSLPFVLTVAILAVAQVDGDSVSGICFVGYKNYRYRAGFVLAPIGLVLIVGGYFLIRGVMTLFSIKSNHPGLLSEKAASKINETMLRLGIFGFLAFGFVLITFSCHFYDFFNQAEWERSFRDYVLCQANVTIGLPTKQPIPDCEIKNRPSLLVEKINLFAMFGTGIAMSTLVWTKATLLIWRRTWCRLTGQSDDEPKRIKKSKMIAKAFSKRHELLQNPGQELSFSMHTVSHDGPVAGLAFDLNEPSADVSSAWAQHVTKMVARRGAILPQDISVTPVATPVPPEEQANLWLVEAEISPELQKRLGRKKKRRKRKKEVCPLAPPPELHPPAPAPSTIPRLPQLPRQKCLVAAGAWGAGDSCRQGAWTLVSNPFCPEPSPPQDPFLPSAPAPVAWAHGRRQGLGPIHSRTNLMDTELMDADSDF
T2 sequence (Q99835 28-787): as the sequence (Q99835 28-787 W535L) above, with L508W counted along it

pIC50 (SmoM2::GFP; 3T3/SmoM2::GFP Overexpression/Ivs::tagRFPT, stimulus none, read-out: IC50, inhibition of ciliary localization of SmoM2::GFP)	effect on SmoM2 ciliary localization (SmoM2::GFP; SmoM2::EGFP overexpressing cells)	pIC50 (Smo)	pIC50 (Smo::EGFP)	pIC50 (SmoM2; Mus musculus, Shh Light II, 3T3/SmoM2::GFP Overexpression/Shh-LightII, stimulus none, read-out: IC50, inhibition of expression of Gli-luciferase reporter induced by SmoM2::GFP overexpression)	pIC50 (Hh pathway activity)	effect on Hh pathway activation induced by loss of suFU [1]	SMILES	effect on SmoM2 driven Hh pathway activity, transcriptional reporter (SmoM2; SmoM2 overexpression)	cytotoxic effects in vitro [2]
< 4.52	failed to inhibit	< 4.52	~5.70 and 5.70	< 4.52	~5.70	does not alter	CCN(CC)c1ccc(/C=N/NC(=O)c2ccc(O)cc2)cc1 [DY131]	failed to inhibit	–
–	–	–	–	–	–	–	CC1(C)O[C@@H]2C[C@H]3[C@@H]4C[C@H](F)C5=CC(=O)C=C[C@]5(C)[C@@]4(F)[C@@H](O)C[C@]3(C)[C@]2(C(=O)CO)O1 [FA, fluocinolone acetonide]	–	no obvious cytotoxic effects
